From US11207299B2, “Biphenyl sulfonamide compounds for the treatment of type IV collagen diseases” (Travere Therapeutics, Inc., priority 2018, dated 2021)
“And” between values parts separate entries of the source, which are not always exact repeats. Equal values may be shown once. “Also recorded” adds a separate entry of the source.

What was measured:
[1] = tested on: autosomal Alport mice (COL4A3^−/−); test: Late intervention study in Alport mice (treated from 5-7 weeks of age); format: in vivo, mouse
Excerpt: (§1) Vehicle or sparsentan was given daily by oral gavage to autosomal Alport mice (COL4A3^−/−) on the 129/Sv background (male and female) in five separate studies: a pilot study, an early intervention study (treated from 3-7 weeks of age), a late intervention study (treated from 5-7 weeks of age after the onset of glomerular (GM) changes), a lifespan study, and a hearing study (FIG. 1). The early intervention, late intervention, lifespan, and hearing studies also included mice treated with a comparator, losartan, which was given orally at 3-4 weeks of age in the early intervention study, in drinking water at 4-7 weeks of age in the early intervention study, and in drinking water at 5-7 weeks in the late intervention study.
(§2) Efficacy renal endpoints included blood urea nitrogen (BUN), proteinuria (urine protein to creatinine ratio, or UP/C), glomerulosclerosis, tubulointerstitial fibrosis, leucocyte infiltration, and glomerular basement morphology (GBM) using transmission electron microscopy (TEM). Endpoints in the inner ear included auditory brain stem response (ABR) threshold as a measure of noise-induced hearing loss, strial capillary basement membrane thickness, and inner ear pathology by TEM.
In the late intervention study, wild-type or Alport mice (8 mice per group) were dosed for 14 days according to the same methods used in the early intervention study but beginning at 5 weeks of age, i.e., dosed with vehicle, 120 mg/kg of sparsentan, or 10 mg/kg losartan starting at 5 weeks of age for 14 days. In this study, untreated Alport mice at 5 weeks of age were also used as baseline controls.
For the pilot, early intervention, late intervention, and lifespan studies, spot urine was sampled pre-study and weekly during treatment and analyzed for protein (UP) and creatinine (C) to determine proteinuria (UP/C). At the end of each study the animals were euthanized, blood samples were taken, BUN was measured from serum, and kidneys were harvested for structural and immuno-fluorescent measurements. Glomerulosclerosis was assessed by immunofluorescence (IF) using an antibody to fibronectin (FN). Visual counting of the number of sclerotic glomeruli as a proportion of the total number of glomeruli per slide was used to calculate the percentage of sclerotic glomeruli. Sections were co-stained with an anti-CD45 antibody to indicate leucocyte infiltration. Tubulointerstitial fibrosis was determined by IF of kidney sections using an antibody to collagen 1 (COL1). Tubulointerstitial fibrosis (TIF) scoring was conducted by visual assessment of the COL1 positive area as a percentage of the total cortical area and was performed blinded. The fibrosis scoring (“Fibrosis Score”) was categorized according to visual judgment of percentage of total cortical area, as: 0=<5%, 1=5-10%, 2=10-25%, 3=25-50%, 4=50-75%, or 5=75-100%. Ultrastructural changes in GBM and podocyte morphology were observed using transmission electron microscopy (TEM).
For a baseline comparison for late intervention, glomerulosclerosis and fibrosis were determined in kidney samples taken from 5-week-old untreated Alport mice.

[2] = tested on: autosomal Alport mice (COL4A3^−/−); test: Hearing study in Alport mice (ABR, noise exposure, strial capillary basement membrane TEM); format: in vivo, mouse
Excerpt: as §1, §2
For the hearing study, wild-type or Alport mice were treated according to daily from 3-8.5 weeks of age by oral gavage with vehicle (0.5% methylcellulose 4000 cps/0.25% Tween® 80 in distilled water) or 120 mg/kg sparsentan or losartan at 20 mg/kg by oral gavage from 3-4 weeks of age (during weaning) and 10 mg/kg in drinking water from 4-7 weeks of age (n=5). The progression of Alport disease was assessed at 7 weeks of age by the amount of proteinuria (via urinalysis reagent strips—data not shown). Strial capillary basement membrane (SCBM) width was analyzed by transmission electron microscopy (TEM), and accumulation of extracellular matrix (ECM) in SCBM was determined by immunofluorescence (IF) microscopy using an antibody to laminin α2. Hearing ability and sensitivity to noise were assessed between 7 and 8 weeks of age by Auditory Brainstem Response (ABR), pre-noise exposure. A subset of each treatment group was then exposed to a metabolic noise stress for 10 hours. Mice receiving the noise treatment were randomly selected for overstimulation with a 106 dB sound pressure level (SPL), narrow band noise (8-16 kHz) for 10 hours, usually 10 PM to 8 AM. The noise exposure was conducted in a sound-isolation booth. A speaker was suspended from the ceiling. Wire cages with individual compartments were located midway between the floor and speaker. Mice were hydrated prior to placement in the cage and were provided free access to food. The noise exposure occurred at 8 weeks of age. The amount of hearing loss caused by the metabolic noise exposure was determined 5 days post-exposure.

[3] = Alport mice late intervention, sparsentan 120 mg/kg, mean ± SD

SMILES: CCCCC1=NC2(CCCC2)C(=O)N1Cc1ccc(-c2ccccc2S(=O)(=O)Nc2noc(C)c2C)c(COCC)c1 [sparsentan]
- UP/C ([1]; Alport mice late intervention, sparsentan 120 mg/kg for 14 days from 5 wk of age, mean ± SD, n = 8): 16.8 ± 2.8 mg/mg
- BUN [1, 3]: 16.2 ± 2.4 mg/dL
- GS (% Sclerotic glomeruli) [1, 3]: 8.3 ± 9.2 %
- TIF ([1]; Alport mice late intervention, sparsentan 120 mg/kg, tubulointerstitial fibrosis score, mean ± SD): 0.8 ± 0.7
- Nephroprotection in AP mice ([1]; late intervention, to a greater extent than in the losartan-treated group): significant nephroprotection
- Development of fibrosis, CD45^+ leucocyte infiltration, and glomerulosclerosis ([1]; sparsentan 120 mg/kg or losartan 10 mg/kg, 5-7 weeks of age): prevented; also recorded: attenuated
- UP/C, BUN, glomerulosclerosis, and fibrosis vs. vehicle-treated Alport mice ([1]; sparsentan 120 mg/kg, late intervention, P<0.05): significantly lower
- Hearing ability before noise exposure (ABR) ([2]; 7-8-week-old mice, sparsentan 120 mg/kg or losartan 20/10 mg/kg): did not differ significantly
- Post-noise hearing loss (ABR threshold post-noise minus pre-noise) vs vehicle-treated Alport mice ([2]; 16 kHz, 5 days after 10 h noise, sparsentan 120 mg/kg, P<0.05): prevented; also recorded: significantly reduced
- Increase in strial capillary basement membrane width observed in vehicle-treated Alport mice ([2]; Alport mice treated 3-8.5 weeks of age with sparsentan or losartan): prevented
- mean SCBM width±SD ([2]; Alport mice, sparsentan 120 mg/kg from 3-8.5 weeks of age, TEM, n=5): 54.7±2.4 nm
- Strial capillary basement membrane thickness, single measurements (FIG. 16) ([2]; capillary from a stria of a sparsentan-treated Alport mouse, TEM): 52.45 nm and 58.09 nm and 80.38 nm
- Stria vascularis pathology by TEM ([2]; treated Alport mice, FIGS. 14-23): substantially fewer extra- and intra-cytosolic vacuoles
